Test results from patent US20240009277A1, “POLYPEPTIDES FOR USE IN THE TREATMENT AND PREVENTION OF NEURODEGENERATIVE DISEASES” (IMMUNE SYSTEM KEY LTD., priority 2020, published 2024).
Non-standard residues stand in square brackets, D forms with d. Residues, ends and D or L forms follow the SMILES beside them. No end group written: not given here.

Experiment: Blood Brain Barrier (BBB) penetration assay, ELISA of spinal fluid after I.P. injection
Format: in vivo, mice
Conditions: for level of the polypeptide in mice brain following injection: I.P. 60 mg/kg in 5% mannitol, spinal fluid collected after 1 hour, ELISA, compared to 5% mannitol control
Experimental: ICR female mice having initial body weight of 20-22 grams were used (Envigo).
A control group of 6 mice was injected intraperitoneally (I.P.) with 5% mannitol solution and another group of 6 mice was injected I.P. with the polypeptide dTCApFs (also termed herein Nerofe, at 60 mg/kg) in a 5% mannitol solution. Spinal fluid was collected after the injection (1 hour) and subjected to ELISA analysis of dTCApFs (Nerofe), as detailed below.
Mice were injected with 60 mg/kg D-amino acid dTCApFs (Nerofe), and cerebrospinal fluid (about 10 μl) and serum were collected after 1 hr, and frozen. A calibration curve was prepared by serial dilutions of the polypeptide in PBS (Biological industries, 02-023-5A) as noted in table 1 below.
Next, the cerebrospinal samples were thawed and kept on ice, and then diluted in 220 μl PBS. Sample loading was next performed by loading 100 μl duplicates of each sample and of the standard in a Maxisorp 96-wells plate (NUNC, F96 Maxisorp, 442404). The plate was sealed and incubated at 4° C. overnight with gentle shaking. The plate was washed by removing the liquid and washing the plate four (4) times using a multi-pipette or an automated washer with 300 μl 0.05% TW-20 (Amresco, 0777-1L) in PBS. The samples were blocked by diluting 5% BSA (MP biomedicals, 160069) in PBS. Then, 300 μl of the blocking buffer were loaded in each well and the plate was incubated at room temperature (R.T.) for 1 hour with gentle shaking. The Plates were washed again, as described above.
Detection was performed by diluting the first antibody according to table 1 below in diluent (0.05% TW-20, 0.1% BSA in PBS). Then, 100 μl of detection antibody were loaded into each well and the plate was incubated at R.T. for 2:00 hours with gentle shaking. The plate was washed again as detailed above. […]
Development was performed by adding 100 μl TMB (Milipore, ES001-500ML) to each well, and waiting for blue color development, then adding 100 μl 2N H2SO4 (Frutarom, 5552540). Plate reading was performed in a microplate reader, by checking the wells absorbance at 450 nm. […]

CC(C)C[C@@H](NC(=O)[C@H](NC(=O)[C@@H](CO)NC(=O)[C@H]1CCCN1C(=O)[C@@H](CC(C)C)NC(=O)[C@@H](Cc1ccccc1)NC(=O)[C@@H](Cc1ccccc1)NC(=O)[C@H](NC(=O)[C@@H](Cc1c[nH]c2ccccc12)NC(=O)[C@H](N)Cc1c[nH]c2ccccc12)[C@H](C)O)[C@H](C)O)C(=O)N[C@H](Cc1c[nH]c2ccccc12)C(=O)N[C@H](CCC(=O)O)C(=O)N[C@H](CCCNC(=N)N)C(=O)N[C@H](CCCCN)C(=O)O [dTCApFs, Trp Trp Thr Phe Phe Leu Pro Ser Thr Leu Trp Glu Arg Lys] (H-[dW][dW][dT][dF][dF][dL][dP][dS][dT][dL][dW][dE][dR][dK]-OH; N-terminus and C-terminus assumed)
level of the polypeptide in mice brain following injection: dramatically increased | penetration ability of the BBB (mice, I.P. 60 mg/kg): good penetration ability of the BBB

WWTFFLPSTLWERK [L-amino acid polypeptide, Trp Trp Thr Phe Phe Leu Pro Ser Thr Leu Trp Glu Arg Lys, reference compound]
level of the polypeptide in mice brain following injection: changed insignificantly
